Values of other authors, collected in PubChem BioAssay AID1259409 (Chemical Carcinogenesis Research Information System (CCRIS), 2018).

Test system: rodent chemically induced tumor inhibition, incidence and multiplicity
Assay: CCRIS tumor inhibitor studies
Conditions: Carcinogen: 7,12-DIMETHYLBENZ[A]ANTHRACENE, 57-97-6, Dose [Inhibitor]: 0, Route [Inhibitor]: ORAL, Species: FISH, FEMALE, Promoter: NONE USED

O=c1oc2c(O)c(O)cc3c(=O)oc4c(O)c(O)cc1c4c23
tumour outcome (control, treated, inhibition, significance) (1000 PPM IN DIET FOR 17 WK BEGINNING POST CARCINOGEN TREATMENT (STUDY DURATION: 42 WK), Strain/Sex: RAINBOW TROUT/ MALE, Target Tissue: Type of Lesion: SWIM BLADDER: TUMOR, Dose [Carcinogen]: 5.5 PPM IN WATER FOR 1 HR): 15%, 6%, 60%, p<0.05 | tumour outcome (control, treated, inhibition, significance) (1000 PPM IN DIET FOR 17 WK BEGINNING POST CARCINOGEN TREATMENT (STUDY DURATION: 42 WK), Strain/Sex: RAINBOW TROUT/MALE, Target Tissue: Type of Lesion: LIVER: TUMOR, Dose [Carcinogen]: 5.5 PPM IN WATER FOR 1 HR): 5%, 11%, -120%, p<0.05 | tumour outcome (control, treated, inhibition, significance) (1000 PPM IN DIET FOR DURATION OF STUDY BEGINNING CONCURRENTLY WITH CARCINOGEN TREATMENT (STUDY DURATION: 42 WK), Strain/Sex: RAINBOW TROUT/ MALE, Target Tissue: Type of Lesion: STOMACH: TUMOR, Dose [Carcinogen]: 750 PPM IN DIET FOR 7 WK): 85%, 78%, 8%, p<0.05 | tumour outcome (control, treated, inhibition, significance) (1000 PPM IN DIET FOR DURATION OF STUDY BEGINNING CONCURRENTLY WITH CARCINOGEN TREATMENT (STUDY DURATION: 42 WK), Strain/Sex: RAINBOW TROUT/ MALE, Target Tissue: Type of Lesion: SWIM BLADDER: TUMOR, Dose [Carcinogen]: 750 PPM IN DIET FOR 7 WK): 1%, 1%, 0%, not significant | tumour outcome (control, treated, inhibition, significance) (1000 PPM IN DIET FROM 3 WK PRIOR TO CARCINOGEN TREATMENT TO 3 D POST CARCINOGEN TREATMENT (STUDY DURATION: 42 WK), Strain/Sex: RAINBOW TROUT/MALE, Target Tissue: Type of Lesion: LIVER: TUMOR, Dose [Carcinogen]: 4.16 PPM IN WATER FOR 1 HR): 7%, 16%, -129%, p<0.001 | tumour outcome (control, treated, inhibition, significance) (1000 PPM IN DIET FROM 3 WK PRIOR TO CARCINOGEN TREATMENT TO 3D POST CARCINOGEN TREATMENT (STUDY DURATION: 42 WK), Strain/Sex: RAINBOW TROUT/MALE, Target Tissue: Type of Lesion: STOMACH: TUMOR, Dose [Carcinogen]: 4.16 PPM IN WATER FOR 1 HR): 97%, 92%, 5%, not significant | tumour outcome (control, treated, inhibition, significance) (1000 PPM IN DIET FROM 3 WK PRIOR TO CARCINOGEN TREATMENT TO 3 D POST CARCINOGEN TREATMENT (STUDY DURATION: 42 WK), Strain/Sex: RAINBOW TROUT/MALE, Target Tissue: Type of Lesion: SWIM BLADDER: TUMOR, Dose [Carcinogen]: 4.16 PPM IN WATER FOR 1 HR): 14%, 50%, -257%, p<0.001 | tumour outcome (control, treated, inhibition, significance) (2000 PPM IN DIET FOR 17 WK BEGINNING POST CARCINOGEN TREATMENT (STUDY DURATION: 42 WK), Strain/Sex: RAINBOW TROUT/ MALE, Target Tissue: Type of Lesion: STOMACH: TUMOR, Dose [Carcinogen]: 5.5 PPM IN WATER FOR 1 HR): 88%, 19%, 78%, p<0.001 | tumour outcome (control, treated, inhibition, significance) (2000 PPM IN DIET FOR 17 WK BEGINNING POST CARCINOGEN TREATMENT (STUDY DURATION: 42 WK), Strain/Sex: RAINBOW TROUT/ MALE, Target Tissue: Type of Lesion: SWIM BLADDER: TUMOR, Dose [Carcinogen]: 5.5 PPM IN WATER FOR 1 HR): 15%, 6%, 60%, p<0.05 | tumour outcome (control, treated, inhibition, significance) (2000 PPM IN DIET FOR 17 WK BEGINNING POST CARCINOGEN TREATMENT (STUDY DURATION: 42 WK), Strain/Sex: RAINBOW TROUT/MALE, Target Tissue: Type of Lesion: LIVER: TUMOR, Dose [Carcinogen]: 5.5 PPM IN WATER FOR 1 HR): 5%, 10%, -100%, p<0.05 | tumour outcome (control, treated, inhibition, significance) (2000 PPM IN DIET FROM 1 WK PRIOR TO CARCINOGEN TREATMENT TO 3 D POST CARCINOGEN (STUDY DURATION: 42 WK), Strain/Sex: RAINBOW TROUT/ MALE, Target Tissue: Type of Lesion: SWIM-BLADDER: TUMOR, Dose [Carcinogen]: 5.5 PPM IN WATER FOR 1 HR): 15%, 7%, 53%, p<0.05 | tumour outcome (control, treated, inhibition, significance) (2000 PPM IN DIET FROM 1 WK PRIOR TO CARCINOGEN TREATMENT TO 3 D POST CARCINOGEN TREATMENT (STUDY DURATION: 42 WK), Strain/Sex: RAINBOW TROUT/ MALE, Target Tissue: Type of Lesion: LIVER: TUMOR, Dose [Carcinogen]: 5.5 PPM IN WATER FOR 1 HR): 5%, 3%, 40%, not significant
